System: not listed separately
Experiment: Rat PK
Type: in vivo
Details: po, male SD rats, 5 mg/kg p.o., suspended in 0.5% methylcellulose in water, plasma
Procedure: Each test compounds was suspended in 0.5% methylcellulose in water.
Grouping male SD rats was administered with test compound at a dose of 5 mg/kg by oral. After administering, blood samples were collected at time points of 0.50, 1.0, 2.0, 4.0, 6.0, 8.0 and 24.0 h. Standard curve was plotted based on concentrations of the samples in a suitable range, and the concentration of test compounds in plasma samples were determined by using LC-MS/MS. Pharmacokinetic parameters were calculated according to plasma concentration-time curve by Phoenix WinNonLin 6.1 software.

AUC(0-inf) [ng·h/mL]	AUC(0-t) [ng·h/mL]	Cmax [ng/mL]	half-life [h]	Structure (SMILES)
4030	3840	1500	3.83	CS(C)(=O)=NCCNc1nonc1/C(=N/O)Nc1ccc(F)c(Br)c1 [Example 1, (Z)—N-(3-bromo-4-fluorophenyl)-4-((2-((dimethyl(oxo)-λ^6-sulfanylidene)amino)ethyl)amino)-N′-hydroxy-1,2,5-oxadiazole-3-carboximidamide]
924	880	169	2.48	NS(=O)(=O)NCCNc1nonc1C(=NO)Nc1ccc(F)c(Br)c1 [Reference Compound 1, (Z)—N-(3-bromo-4-fluorophenyl)-N′-hydroxy-4-((2-(sulfamoylamino)ethyl)amino)-1,2,5-oxadiazole-3-carboximidamide, reference compound]
1450	1440	496	3.47	CCS(=N)(=O)NCCNc1nonc1C(=NO)Nc1ccc(F)c(Br)c1 (stereo not drawn) [Example 7, (Z)—N-(3-bromo-4-fluorophenyl)-4-((2-(ethylsulfonoimidamido)ethyl)amino)-N′-hydroxy-1,2,5-oxadiazole-3-carboximidamide]
1120	1100	469	1.19	CS(C)(=O)=NCCNc1nonc1/C(=N/O)Nc1ccc(F)c(Cl)c1 [Example 28, (Z)-N-(3-chloro-4-fluorophenyl)-4-((2-((dimethyl(oxo)-λ^6-sulfanylidene)amino)ethyl)amino)-N′-hydroxy-1,2,5-oxadiazole-3-carboximidamide]

Biological target: T1, IDO (Homo sapiens, UniProt P14902)
T1 construct: endogenous in cells; host or cells: HeLa cells stimulated with recombinant human interferon-gamma
T1 sequence (P14902 whole entry): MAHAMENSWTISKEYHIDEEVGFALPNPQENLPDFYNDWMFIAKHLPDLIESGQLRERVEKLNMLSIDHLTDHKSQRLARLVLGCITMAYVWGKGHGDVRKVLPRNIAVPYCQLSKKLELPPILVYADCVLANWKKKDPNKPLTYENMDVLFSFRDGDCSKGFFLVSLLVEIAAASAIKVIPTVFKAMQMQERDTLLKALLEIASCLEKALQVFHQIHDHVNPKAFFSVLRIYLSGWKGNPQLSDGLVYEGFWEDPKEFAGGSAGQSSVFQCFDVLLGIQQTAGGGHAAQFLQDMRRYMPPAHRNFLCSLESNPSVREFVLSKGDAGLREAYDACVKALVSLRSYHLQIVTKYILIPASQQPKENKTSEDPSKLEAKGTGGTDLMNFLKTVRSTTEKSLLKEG
Experiment: IDO Cell-Based NEK Green Assay (NFK Green, N-formyl kynurenine level)
Details: Hela cells, 1 mM L-Tryptophan, 100 ng/mL recombinant human interferon-gamma, 2 days, NFK Green fluorescence
Procedure: IDO Cell-Based NEK Green Assay
Materials: RPMI 1640 (phenol red free) (Invitrogen Cat. No. 11835030), Fetal Bovine Serum (Invitrogen Cat. No. 10099141), Penicillin-Streptomycin (Invitrogen Gibco Cat. No. 15140-122), Cellular assay kit (NTRC, Cat. No. NTRC-GSCell-1K), DMSO (Sigma, Cat. No. D2650), 384 wells_compound plate (Greiner, Cat. No. 781280), 384 wells_assay plate (Greiner, Cat. No. 781091)
The concentrations of test compounds varied from 5 μM to 0.76 nM with 3-fold dilution, 10 points, in duplicates.
Hela cells were seeded at 8,000 cells per well with RPMI/phenol red free media containing 10% FBS in a 384-well tissue culture plate. Mixture of compounds and 1 mM L-Tryptophan were added to cells; and then the recombinant human interferon-gamma was added at the final concentration of 100 ng/mL to activate IDO signaling. The cells were incubated for 2 days in 37° C. incubator with 5% CO2. After that, NFK Green was used to detect the N-formyl kynurenine level by following the commercial kit instruction. The fluorescent signal was measured by Envision plate Reader (excitation, 400/25; emission, 510/20). Curves are fit by XLFIT5 as % inhibition vs. log [compound concentration] using a 4 parameters logistic model 205.
(§1) Select compounds prepared as described above were assayed according to the biological procedures described herein.

IC50 [nM]	Structure (SMILES)
14.5	CS(C)(=O)=NCCNc1nonc1/C(=N/O)Nc1ccc(F)c(Cl)c1 [Example 28, (Z)-N-(3-chloro-4-fluorophenyl)-4-((2-((dimethyl(oxo)-λ^6-sulfanylidene)amino)ethyl)amino)-N′-hydroxy-1,2,5-oxadiazole-3-carboximidamide]

Biological target: T1, IDO
Experiment: IDO Cell-Based LC/MS Assay
Details: Hela cells, 100 ng/mL recombinant human interferon-gamma, 20 hours, LC/MS readout
Source text: IDO Cell-Based LC/MS Assay
Materials: RPMI 1640 (phenol red free) (Invitrogen Cat. No. 11835030), Fetal Bovine Serum (Invitrogen Cat. No. 10099141), Penicillin-Streptomycin (Invitrogen Gibco Cat. No. 15140-122), recombinant human interferon-gamma (R&D system, Cat. No. 285-IF-100), 5% (w/v) trichloroacetic acid (Alfa Aesar Cat. No. All 156), DMSO (Sigma, Cat. No. D2650), 96 wells_compound plate (Axygen, Cat. No. WIPP02280), 96 wells_assay plate (Greiner, Cat. No. 655090)
The concentrations of test compounds varied from 5 μM to 0.76 nM with 3-fold dilution, 9 points, in duplicates.
Hela cells were seeded at 40,000 cells per well with RPMI/phenol red free media containing 10% FBS in a 96-well tissue culture plate. After adding compound to cells, 100 ng/mL of recombinant human interferon-gamma was added to activate IDO signaling. The cells were incubated for 20 hours in 37° C. incubator with 5% CO2. Compound treatment was stopped by adding 5% trichloroacetic acid. Subsequently, the cell plate was further incubated at 50° C. for 30 minutes. After precipitation, the supernatant was collected and measured by triple quadrupole mass spectrometer (AB Sciex 4000), coupled with HPLC Shimadzu EC 20 AD and autosampler CTC PAL. Curves are fit by XLFIT5 as % inhibition vs. log [compound concentration] using a 4 parameters logistic model 205.
as §1

Structure (SMILES)	IC50 [nM]
CC(CNc1nonc1/C(=N/O)Nc1ccc(F)c(Br)c1)NS(C)(=N)=O (stereo not drawn) [Example 9, (Z)—N-(3-bromo-4-fluorophenyl)-N′-hydroxy-4-((2-(methylsulfonoimidamido)propyl)amino)-1,2,5-oxadiazole-3-carboximidamide]	123
O=S1(=NCCNc2nonc2/C(=N/O)Nc2ccc(F)c(Br)c2)CCCCC1 [Example 4, (Z)—N-(3-bromo-4-fluorophenyl)-N′-hydroxy-4-((2-((1-oxidotetrahydro-2H-1λ^6-thiopyran-1-ylidene)amino)ethyl)amino)-1,2,5-oxadiazole-3-carboximidamide]	477
O=S1(=NCCNc2nonc2/C(=N/O)Nc2ccc(F)c(Br)c2)CCCC1 [Example 5, (Z)—N-(3-bromo-4-fluorophenyl)-N′-hydroxy-4-((2-((1-oxidotetrahydro-1λ^6-thiophen-1-ylidene)amino)ethyl)amino)-1,2,5-oxadiazole-3-carboximidamide]	195
CS(=N)(=O)NCCNc1nonc1/C(=N/O)Nc1cccc(C(F)(F)F)c1 (stereo not drawn) [Example 15, (Z)—N′-hydroxy-4-((2-(methylsulfonoamidimidamido)ethyl)amino)-N-(3-(trifluoromethyl)phenyl)-1,2,5-oxadiazole-3-carboximidamide]	54.3
O=S1(=NCCNc2nonc2/C(=N/O)Nc2ccc(F)c(Br)c2)CCOCC1 [Example 3, (Z)—N-(3-bromo-4-fluorophenyl)-N′-hydroxy-4-((2-((4-oxido-1,4λ^6-oxathian-4-ylidene)amino)ethyl)amino)-1,2,5-oxadiazole-3-carboximidamide]	153
CS(=N)(=O)NCCNc1nonc1/C(=N/O)Nc1ccc(F)c(C#N)c1 (stereo not drawn) [Example 13, (Z)—N-(3-cyano-4-fluorophenyl)-N′-hydroxy-4-((2-(methylsulfonoimidamido)-ethyl)amino)-1,2,5-oxadiazole-3-carboximidamide]	311
CS(=N)(=O)NCCNc1nonc1/C(=N/O)Nc1ccc(F)c(C(F)(F)F)c1 (stereo not drawn) [Example 14, (Z)—N-(4-fluoro-3-(trifluoromethyl)phenyl)-N′-hydroxy-4-((2-(methylsulfonoamidimidamido)ethyl)amino)-1,2,5-oxadiazole-3-carboximidamide]	20.1
CCS(=N)(=O)NCCNc1nonc1/C(=N/O)Nc1cccc(C(F)(F)F)c1 (stereo not drawn) [Example 16, (Z)-4-((2-(ethylsulfonoimidamido)ethyl)amino)-N′-hydroxy-N-(3-(trifluoromethyl)phenyl)-1,2,5-oxadiazole-3-carboximidamide]	298
CC(CNS(C)(=N)=O)Nc1nonc1/C(=N/O)Nc1ccc(F)c(Br)c1 (stereo not drawn) [Example 10, (Z)—N-(3-bromo-4-fluorophenyl)-N′-hydroxy-4-((1-(methylsulfonoimidamido)propan-2-yl)amino)-1,2,5-oxadiazole-3-carboximidamide]	244

Continued, values first:

IC50 [nM]	Structure (SMILES)
40	CN=S(C)(=O)NCCNc1nonc1C(=NO)Nc1ccc(F)c(Br)c1 (stereo not drawn) [Example 11, (Z)—N-(3-bromo-4-fluorophenyl)-N′-hydroxy-4-((2-(N′-methylmethylsulfonoamidimidamido)ethyl)amino)-1,2,5-oxadiazole-3-carboximidamide]
270	CCS(=O)(CC)=NCCNc1nonc1/C(=N/O)Nc1ccc(F)c(Br)c1 [Example 2, (Z)—N-(3-bromo-4-fluorophenyl)-4-((2-((diethyl(oxo)-λ^6-sulfanylidene)amino)ethyl)amino)-N′-hydroxy-1,2,5-oxadiazole-3-carboximidamide]
54	CS(C)(=O)=NCCNc1nonc1/C(=N/O)Nc1ccc(F)c(Br)c1 [Example 1, (Z)—N-(3-bromo-4-fluorophenyl)-4-((2-((dimethyl(oxo)-λ^6-sulfanylidene)amino)ethyl)amino)-N′-hydroxy-1,2,5-oxadiazole-3-carboximidamide]
18.6	CS(=N)(=O)NCCCNc1nonc1C(=NO)Nc1ccc(F)c(Br)c1 (stereo not drawn) [Example 8, (Z)—N-(3-bromo-4-fluorophenyl)-N′-hydroxy-4-((3-(methylsulfonoimidamido)propyl)amino)-1,2,5-oxadiazole-3-carboximidamide]
6.6	CCS(=N)(=O)NCCNc1nonc1C(=NO)Nc1ccc(F)c(Br)c1 (stereo not drawn) [Example 7, (Z)—N-(3-bromo-4-fluorophenyl)-4-((2-(ethylsulfonoimidamido)ethyl)amino)-N′-hydroxy-1,2,5-oxadiazole-3-carboximidamide]
63.7	CS(=N)(=O)NCCNc1nonc1C(=NO)Nc1ccc(F)c(Br)c1 (stereo not drawn) [Example 6, (Z)—N-(3-bromo-4-fluorophenyl)-N′-hydroxy-4-((2-(methylsulfonoimidamido)ethyl)amino)-1,2,5-oxadiazole-3-carboximidamide]
12.3	CS(=N)(=O)NCCNc1nonc1/C(=N/O)Nc1ccc(F)c(Cl)c1 (stereo not drawn) [Example 12, (Z)—N-(3-chloro-4-fluorophenyl)-N′-hydroxy-4-((2-(methylsulfonoimidamido)-ethyl)amino)-1,2,5-oxadiazole-3-carboximidamide]

Reference: patent publication US11168078B2, “Sulfoximine, sulfonimidamide, sulfondiimine and diimidosulfonamide compounds as inhibitors of indoleamine 2,3-dioxygenase” (Shanghai Fochon Pharmaceutical Co., Ltd., priority 2016, dated 2021)
